Test system: TEAD-dependent transcription
Assay: TEAD-dependent transcription cell-based reporter assay (MSTO-211H+12XGTIIC luciferase)
Parameters: species or system human
Conditions: Homo sapiens; MSTO-211H+12XGTIIC reporter cells, 24 hours compound incubation, luminescence normalized to viability; read-out: MSTO-211H GMean IC50 (uM) Cell Assay Reporter Cell Variant: TEAD
Description: The human mesothelioma cell line MSTO-211H was stably transfected with a pGL4.21 plasmid containing a synthetic promoter with 12 copies of the GTIIC TEAD response element that drives the expression of a luciferase reporter gene^1 using Lipofectamine transfection reagent (Thermo Fisher). Transfected cells were selected using puromycin and single cell clones expressing this construct (referred to as MSTO-211H+12XGTIIC) were generated by limiting dilution. MSTO-211H cells was characterized by genetic alterations in key components of the Hippo pathway^2, resulting in up-regulation of YAP/TEAD-mediated transcription. […] To evaluate TEAD inhibitors, the MSTO-211H+12XGTIIC cell line was seeded in a 96-well plate in 50 μL of culture media at 1×10^4 cells per well and incubated at 37° C. overnight. Serial dilutions of compounds (in total volume of 50 μL of culture media) were added to the cells and incubated at 37° C. for 24 hours. Each plate included cells treated with DMSO as high controls and cells treated with 20 μM of the reference compound K-975 (a known TEAD inhibitor)^3 as low controls. Cell viability was assayed by the addition of 25 μL of CellTiter-Fluor reagent (Promega) followed by a 30-minute incubation at 37° C. and quantification of the fluorescence signal (Ex400/Em505). Subsequently, luciferase expression was assayed by the addition of 25 μL of ONE-Glo reagent (Promega) followed by a 10-minute incubation at room temperature and quantification of the luminescence signal. The luminescence signal was normalized to the fluorescence signal to correct for any loss in cell viability over the 24-hour compound incubation period. The percentage of inhibition of normalized luminescence signal, indicative of compound-mediated inhibition of TEAD-dependent transcription, at individual compound concentrations relative to high and low controls was calculated. The data were analyzed by using nonlinear regression to generate IC50 values for individual compounds.

`O=C(Cc1cscn1)N1CCc2c(Cc3ccc(C(F)(F)F)cc3)cccc2C1` [O-0079, 2-(thiazol-4-yl)-1-(5-(4-(trifluoromethyl)benzyl)-3,4-dihydroisoquinolin-2(1H)-yl)ethan-1-one] and `O=C(Cc1c[nH]cn1)N1CCc2c(Cc3ccc(C(F)(F)F)cc3)cccc2C1` [O-0080, 2-(1H-imidazol-4-yl)-1-(5-(4-(trifluoromethyl)benzyl)-3,4-dihydroisoquinolin-2(1H)-yl)ethan-1-one] fall in the same range of IC50: 0.001 to 10 µM for the first, 0.001 to 10 µM for the second.

`O=C(CCS(=O)(=O)C(F)(F)F)N1CCc2c(cccc2C(F)c2ccc(C(F)(F)F)cc2)C1` (stereo not drawn) [O-0002, 1-(5-(fluoro(4-(trifluoromethyl)phenyl)methyl)-3,4-dihydroisoquinolin-2(1H)-yl)-3-((trifluoromethyl)sulfonyl)propan-1-one] and `CS(=O)(=O)CCC(=O)N1CCc2c(cccc2C(F)c2ccc(C(F)(F)F)cc2)C1` (stereo not drawn) [O-0077, 1-(5-(fluoro(4-(trifluoromethyl)phenyl)methyl)-3,4-dihydroisoquinolin-2(1H)-yl)-3-(methylsulfonyl)propan-1-one] fall in the same range of IC50: 0.001 to 10 µM for the first, 0.001 to 10 µM for the second.

`O=C(CCS(=O)(=O)C(F)(F)F)N1CCc2c(cccc2C(F)c2ccc(C(F)(F)F)nc2)C1` (stereo not drawn) [O-0008, 1-(5-(fluoro(6-(trifluoromethyl)pyridin-3-yl)methyl)-3,4-dihydroisoquinolin-2(1H)-yl)-3-((trifluoromethyl)sulfonyl)propan-1-one] and `O=C(CCS(=O)(=O)C(F)(F)F)N1CCc2c(cccc2C(F)(F)c2ccc(C(F)(F)F)nc2)C1` [O-0009, 1-(5-(difluoro(6-(trifluoromethyl)pyridin-3-yl)methyl)-3,4-dihydroisoquinolin-2(1H)-yl)-3-((trifluoromethyl)sulfonyl)propan-1-one] fall in the same range of IC50: 0.001 to 10 µM for the first, 0.001 to 10 µM for the second.

`CS(=O)(=O)CCC(=O)N1CCc2c(cccc2C(O)c2ccc(C(F)(F)F)cc2)C1` (stereo not drawn) [O-0082, 1-(5-(hydroxy(4-(trifluoromethyl)phenyl)methyl)-3,4-dihydroisoquinolin-2(1H)-yl)-3-(methylsulfonyl)propan-1-one] and `CCOC(c1ccc(C(F)(F)F)cc1)c1cccc2c1CCN(C(=O)CCS(C)(=O)=O)C2` (stereo not drawn) [O-0057, 1-(5-(ethoxy(4-(trifluoromethyl)phenyl)methyl)-3,4-dihydroisoquinolin-2(1H)-yl)-3-(methylsulfonyl)propan-1-one] fall in the same range of IC50: 0.001 to 10 µM for the first, 0.001 to 10 µM for the second.

`O=C(CCS(=O)(=O)C(F)(F)F)N1CCc2cc(-c3ccc(C(F)(F)F)c(F)c3)ccc2C1` [O-0130, 1-(6-(3-fluoro-4-(trifluoromethyl)phenyl)-3,4-dihydroisoquinolin-2(1H)-yl)-3-((trifluoromethyl)sulfonyl)propan-1-one] and `O=C(c1ccc(C(F)(F)F)cc1)c1ccc2c(c1)CN(C(=O)CCS(=O)(=O)C(F)(F)F)CC2` [O-0065, 1-(7-(4-(trifluoromethyl)benzoyl)-3,4-dihydroisoquinolin-2(1H)-yl)-3-((trifluoromethyl)sulfonyl)propan-1-one] fall in the same range of IC50: 0.001 to 10 µM for the first, 0.001 to 10 µM for the second.

`O=C(CCS(=O)(=O)C(F)(F)F)N1CCc2c(Cc3ccc(C(F)(F)F)cc3)cccc2C1` [O-0001, 1-(5-(4-(trifluoromethyl)benzyl)-3,4-dihydroisoquinolin-2(1H)-yl)-3-((trifluoromethyl)sulfonyl)propan-1-one] and `O=C(c1ccc(C(F)(F)F)cc1)c1cccc2c1CCN(C(=O)Cc1cscn1)C2` [O-0076, 2-(thiazol-4-yl)-1-(5-(4-(trifluoromethyl)benzoyl)-3,4-dihydroisoquinolin-2(1H)-yl)ethan-1-one] fall in the same range of IC50: 0.001 to 10 µM for the first, 0.001 to 10 µM for the second.

`C=CC(=O)N1CCc2cc(-c3ccc(C(F)(F)F)cc3)ccc2C1` [O-0110, 1-(6-(4-(trifluoromethyl)phenyl)-3,4-dihydroisoquinolin-2(1H)-yl)prop-2-en-1-one] and `C=CS(=O)(=O)N1CCc2cc(-c3ccc(C(F)(F)F)cc3)ccc2C1` [O-0111, 6-(4-(trifluoromethyl)phenyl)-2-(vinylsulfonyl)-1,2,3,4-tetrahydroisoquinoline] fall in the same range of IC50: 0.001 to 10 µM for the first, 0.001 to 10 µM for the second.

Compared with `CS(=O)(=O)c1nc(C(=O)N2CCc3ccc(-c4ccc(C(F)(F)F)cc4)cc3C2)c[nH]1` [O-0189, (2-(methylsulfonyl)-1H-imidazol-4-yl)(7-(4-(trifluoromethyl)phenyl)-3,4-dihydroisoquinolin-2(1H)-yl)methanone], `O=C(c1c[nH]c(C(F)(F)F)n1)N1CCc2ccc(-c3ccc(C(F)(F)F)cc3)cc2C1` [O-0188, (2-(trifluoromethyl)-1H-imidazol-4-yl)(7-(4-(trifluoromethyl)phenyl)-3,4-dihydroisoquinolin-2(1H)-yl)methanone] is higher in IC50: 0.001 to 10 µM for the first, 10 to 100 µM for the second. The first is the more potent here.

First: C[C@@H](NC(=O)OC(C)(C)C)C(=O)N1CCc2c(cccc2-c2ccc(C(F)(F)F)cc2)C1 [O-0196, tert-butyl (R)-(1-oxo-1-(5-(4-(trifluoromethyl)phenyl)-3,4-dihydroisoquinolin-2(1H)-yl)propan-2-yl)carbamate]
Second: CC(=O)N[C@H](C)C(=O)N1CCc2ccc(-c3ccc(C(F)(F)F)cc3)cc2C1 [O-0182, (R)-N-(1-oxo-1-(7-(4-(trifluoromethyl)phenyl)-3,4-dihydroisoquinolin-2(1H)-yl)propan-2-yl)acetamide]
The IC50 of the first is higher: over 100 µM for the first, 0.001 to 10 µM for the second.

`O=C(c1cccc2sc(C(F)(F)F)nc12)N1CCc2c(cccc2C(F)c2ccc(C(F)(F)F)cc2)C1` (stereo not drawn) [O-0070, (5-(fluoro(4-(trifluoromethyl)phenyl)methyl)-3,4-dihydroisoquinolin-2(1H)-yl)(2-(trifluoromethyl)benzo[d]thiazol-4-yl)methanone] and `O=C(c1c[nH]c(C(F)(F)F)n1)N1CCc2c(cccc2C(F)c2ccc(C(F)(F)F)cc2)C1` (stereo not drawn) [O-0055, (5-(fluoro(4-(trifluoromethyl)phenyl)methyl)-3,4-dihydroisoquinolin-2(1H)-yl)(2-(trifluoromethyl)-1H-imidazol-4-yl)methanone] fall in the same range of IC50: 0.001 to 10 µM for the first, 0.001 to 10 µM for the second.

`C[C@@H](NS(C)(=O)=O)C(=O)N1CCc2cc(-c3ccc(C(F)(F)F)cc3)ccc2C1` [O-0161, (R)-N-(1-oxo-1-(6-(4-(trifluoromethyl)phenyl)-3,4-dihydroisoquinolin-2(1H)-yl)propan-2-yl)methanesulfonamide] and `C[C@@H](Nc1ccccn1)C(=O)N1CCc2cc(-c3ccc(C(F)(F)F)cc3)ccc2C1` [O-0145, (R)-2-(pyridin-2-ylamino)-1-(6-(4-(trifluoromethyl)phenyl)-3,4-dihydroisoquinolin-2(1H)-yl)propan-1-one] fall in the same range of IC50: 0.001 to 10 µM for the first, 0.001 to 10 µM for the second.

`C=CS(=O)(=O)N1CCc2c(cccc2-c2ccc(C(F)(F)F)cc2)C1` [O-0117, 5-(4-(trifluoromethyl)phenyl)-2-(vinylsulfonyl)-1,2,3,4-tetrahydroisoquinoline] and `O=C(c1ccc(C(F)(F)F)cc1)c1cccc2c1CCN(C(=O)c1ccc3[nH]ccc3c1)C2` [O-0075, (2-(1H-indole-5-carbonyl)-1,2,3,4-tetrahydroisoquinolin-5-yl)(4-(trifluoromethyl)phenyl)methanone] fall in the same range of IC50: 0.001 to 10 µM for the first, 0.001 to 10 µM for the second.

`O=C(c1ccc(C(F)(F)F)cc1)c1cccc2c1CCN(C(=O)c1cccc3[nH]c(C(F)(F)F)nc13)C2` [O-0046, (2-(trifluoromethyl)-1H-benzo[d]imidazol-4-yl)(5-(4-(trifluoromethyl)benzoyl)-3,4-dihydroisoquinolin-2(1H)-yl)methanone] and `O=C(c1ccc(C(F)(F)F)cc1)c1cccc2c1CCN(C(=O)c1ccc3nc(C(F)(F)F)[nH]c3c1)C2` [O-0073, (2-(trifluoromethyl)-1H-benzo[d]imidazol-6-yl)(5-(4-(trifluoromethyl)benzoyl)-3,4-dihydroisoquinolin-2(1H)-yl)methanone] fall in the same range of IC50: 0.001 to 10 µM for the first, 0.001 to 10 µM for the second.

`C[C@@H](NC(=O)c1ccccn1)C(=O)N1CCc2ccc(-c3ccc(C(F)(F)F)cc3)cc2C1` [O-0177, (R)-N-(1-oxo-1-(7-(4-(trifluoromethyl)phenyl)-3,4-dihydroisoquinolin-2(1H)-yl)propan-2-yl)picolinamide] and `C[C@@H](NC(=O)c1cccc(N)n1)C(=O)N1CCc2ccc(-c3ccc(C(F)(F)F)cc3)cc2C1` [O-0133, (R)-6-amino-N-(1-oxo-(7-(4-(trifluoromethyl)phenyl)-3,4-dihydroisoquinolin-2(1H)-yl)propan-2-yl)picolinamide] fall in the same range of IC50: 0.001 to 10 µM for the first, 0.001 to 10 µM for the second.

For `O=C(Cc1cnc[nH]1)N1CCc2ccc(C(F)(F)c3ccc(C(F)(F)F)nc3)cc2C1` [O-0060, 1-(7-(difluoro(6-(trifluoromethyl)pyridin-3-yl)methyl)-3,4-dihydroisoquinolin-2(1H)-yl)-2-(1H-imidazol-5-yl)ethan-1-one], the IC50 was 0.001 to 10 µM.

Same assay, conditions: MSTO-211H+12XGTIIC reporter cells, 24 hours compound incubation, luminescence normalized to viability; read-out: MSTO-211H GMean IC50 (uM) Cell Assay Reporter Cell Variant: TEAD

`O=C(CCS(=O)(=O)C(F)(F)F)N1CCc2c(cccc2C(F)c2ccc(C(F)(F)F)nc2)C1` (stereo not drawn) [O-0066, 1-(5-{fluoro[6-(trifluoromethyl)-3-pyridyl]methyl}-1,2,3,4-tetrahydro-2-isoquinolyl)-3-(trifluoromesyl)-1-propanone] was tested, and the IC50 was 0.001 to 10 µM.
